According to ChEMBL document CHEMBL1124788, “Conformation-activity relationship study of 5-HT3 receptor antagonists and a definition of a model for this receptor site” (J Med Chem, 1990):

Key:
[1] = target: Serotonin 3 (5-HT3) receptor; test: (§1) Potency at neuronal 5-hydroxytryptamine 3 receptor in the rabbit heart; format: protein-complex assay, Oryctolagus cuniculus
[2] = target: T1, Serotonin 3 receptor (5HT3) (Mus musculus) (UniProt Q9JHJ5+P23979); test: Binding affinity towards 5-hydroxytryptamine 3 receptor was determined by using [3H]-ICS 205-930 as radioligand in mouse N1E 115 cells; format: cell-based
T1 sequence (P23979 whole entry, looked up): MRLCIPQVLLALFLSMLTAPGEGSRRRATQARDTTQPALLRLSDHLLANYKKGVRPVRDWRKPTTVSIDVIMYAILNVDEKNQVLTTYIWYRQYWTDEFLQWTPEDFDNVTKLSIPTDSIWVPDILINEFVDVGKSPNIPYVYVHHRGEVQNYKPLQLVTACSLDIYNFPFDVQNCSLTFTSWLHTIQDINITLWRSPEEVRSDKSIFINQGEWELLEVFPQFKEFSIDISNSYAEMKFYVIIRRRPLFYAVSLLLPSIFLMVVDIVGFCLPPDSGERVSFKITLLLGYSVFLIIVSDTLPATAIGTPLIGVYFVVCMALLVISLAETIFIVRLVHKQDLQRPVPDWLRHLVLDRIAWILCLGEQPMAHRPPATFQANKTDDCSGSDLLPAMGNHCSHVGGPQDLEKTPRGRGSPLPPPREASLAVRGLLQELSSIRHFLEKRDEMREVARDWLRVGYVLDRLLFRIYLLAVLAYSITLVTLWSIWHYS
T1 sequence (Q9JHJ5 whole entry, looked up): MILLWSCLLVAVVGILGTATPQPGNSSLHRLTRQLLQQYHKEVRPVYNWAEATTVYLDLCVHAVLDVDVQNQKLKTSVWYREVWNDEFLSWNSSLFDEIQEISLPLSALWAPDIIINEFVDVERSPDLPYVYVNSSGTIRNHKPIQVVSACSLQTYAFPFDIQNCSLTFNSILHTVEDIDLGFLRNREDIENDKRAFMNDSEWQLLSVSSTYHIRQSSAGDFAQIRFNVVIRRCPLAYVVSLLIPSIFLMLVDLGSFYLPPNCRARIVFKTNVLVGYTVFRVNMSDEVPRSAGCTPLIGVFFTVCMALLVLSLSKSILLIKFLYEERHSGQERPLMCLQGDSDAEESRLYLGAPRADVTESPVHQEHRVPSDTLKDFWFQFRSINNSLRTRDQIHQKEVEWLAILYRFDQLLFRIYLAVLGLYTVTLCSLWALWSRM

[3] = target: T1, Serotonin 3 receptor (5HT3) (Mus musculus); test: as §1; format: protein assay
[4] = target: Serotonin 3 (5-HT3) receptor; test: Potency at neuronal 5-hydroxytryptamine 3 receptors in the rabbit heart; format: protein-complex assay, Oryctolagus cuniculus
[5] = target: Serotonin 3 (5-HT3) receptor; test: Potency to 5-hydroxytryptamine 3 receptor entirely in guinea pig ileum; format: tissue-based, Cavia porcellus
[6] = target: Serotonin 3 (5-HT3) receptor; format: protein-complex assay, Oryctolagus cuniculus
[7] = target: Serotonin 3 (5-HT3) receptor; test: Potency to 5-hydroxytryptamine 3 receptor using [3H]GR-65630 as radioligand in rat cortex
[8] = target: T2, Serotonin 3 (5-HT3) receptor (Rattus norvegicus, UniProt P35563+Q9JJ16); test: Binding affinity to 5-hydroxytryptamine 3 receptor using [3H]GR-65630 as radioligand in rat cortex
T2 sequence (P35563 whole entry): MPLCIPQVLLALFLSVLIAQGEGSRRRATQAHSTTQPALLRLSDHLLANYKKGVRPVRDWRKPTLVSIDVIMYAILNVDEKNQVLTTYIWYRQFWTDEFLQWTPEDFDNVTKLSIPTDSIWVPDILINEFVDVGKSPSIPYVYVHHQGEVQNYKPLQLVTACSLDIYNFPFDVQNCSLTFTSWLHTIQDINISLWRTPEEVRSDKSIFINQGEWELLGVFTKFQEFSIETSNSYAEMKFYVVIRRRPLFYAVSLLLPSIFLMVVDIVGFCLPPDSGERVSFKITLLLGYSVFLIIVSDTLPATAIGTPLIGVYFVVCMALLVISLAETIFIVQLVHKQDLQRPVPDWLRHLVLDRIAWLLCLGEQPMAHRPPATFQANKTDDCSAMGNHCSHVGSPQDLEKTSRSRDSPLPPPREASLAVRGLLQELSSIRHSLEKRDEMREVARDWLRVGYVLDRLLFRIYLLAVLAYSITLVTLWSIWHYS
T2 sequence (Q9JJ16 whole entry): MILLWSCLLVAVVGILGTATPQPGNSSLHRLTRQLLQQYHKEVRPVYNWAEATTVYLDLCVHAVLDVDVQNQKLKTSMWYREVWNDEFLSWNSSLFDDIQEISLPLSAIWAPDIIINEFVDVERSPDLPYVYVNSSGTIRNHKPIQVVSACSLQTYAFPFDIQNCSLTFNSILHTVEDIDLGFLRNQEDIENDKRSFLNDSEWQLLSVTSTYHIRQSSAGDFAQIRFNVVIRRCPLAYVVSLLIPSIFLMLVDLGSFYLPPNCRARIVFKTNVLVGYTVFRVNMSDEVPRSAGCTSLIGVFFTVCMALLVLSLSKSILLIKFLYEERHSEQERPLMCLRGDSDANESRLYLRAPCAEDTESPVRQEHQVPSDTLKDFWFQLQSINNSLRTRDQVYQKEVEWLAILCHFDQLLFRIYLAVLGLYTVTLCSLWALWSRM

[9] = target: T2, Serotonin 3 (5-HT3) receptor; test: Binding affinity to 5-hydroxytryptamine 3 receptor using [3H]quipazine as radioligand in rat cortex

COC(=O)[C@@H]1C2CCC(C[C@@H]1OC(=O)c1ccccc1)N2 (stereo not given in full)
pA2 [1]: 7.7

Cc1nccn1CC1CCc2c(c3ccccc3n2C)C1=O (stereo not given)
pKD [2]: 7.9

CN1C2CCC1CC(OC(=O)c1cn(C)c3ccc(F)cc13)C2 (stereo not given)
pKD [3]: 9.8

O=C(c1c[nH]c2ccccc12)C1CCNCC1
pA2 [4]: 8.3

CN1[C@@H]2CC[C@H]1C[C@H](OC(=O)c1ccccc1)C2
pA2 [1]: 7.2

Cc1cc(C)cc(C(=O)OC2CC3CCC(C2)N3C)c1 (stereo not given)
pA2 [1]: 9

CN1CC(=O)C2CCC(OC(=O)c3c[nH]c4ccccc34)C1C2 (stereo not given)
pA2 [4]: 9.8

COc1cc(N)c(Cl)cc1C(=O)N[C@H]1CCN2CCC[C@@H]1C2
pA2 [4]: 8.9 | pA2 [5]: 7.6 | pA2 [6]: 8.5

Cc1[nH]cnc1CCC(=O)c1cn(C)c2ccccc12
Log Ki [7]: -8.79

O=C(OC1CC2CCC(C1)N2)c1c[nH]c2ccccc12 (stereo not given)
pKD [2]: 9.14

CN1[C@@H]2CC[C@H]1C[C@@H](OC(=O)c1cc(Cl)cc(Cl)c1)C2 [BEMESETRON]
Ki [8]: 55 nM | pKD [2]: 8.21

CCN(CC)CCNC(=O)c1cc(Cl)c(N)cc1OC [METOCLOPRAMIDE]
pA2 [4]: 7.3 | Ki [9]: 229 nM | Ki [8]: 200 nM | pKD [2]: 6.65

C[N+]1(C)CCC(C(=O)c2c[nH]c3ccccc23)CC1.[I-]
pA2 [4]: 9.2

CN1[C@@H]2CC[C@H]1C[C@@H](OC(=O)c1c[nH]c3ccccc13)C2 [TROPISETRON]
Ki [9]: 0.603 nM | Ki [8]: 3.16 nM | pKD [2]: 9.09

c1ccc2nc(N3CCNCC3)ccc2c1 [QUIPAZINE]
Ki [9]: 1 nM | Ki [8]: 1.41 nM | pKD [2]: 8.69
